Measurements taken from patent US8796245B2 (TetraPhase Pharmaceuticals, Inc., priority 2008, dated 2014).
Values after ≈ are worked out from the molar mass of the structure shown.

Columns and labels:
Type in all cases: cell-based
[1] = tested on: E. cloacae ATCC 13047 (EC108); assay: Minimum inhibitory concentration assay, EC108; settings: Enterobacter cloacae, ATCC13047; E. cloacae ATCC 13047, wt; read-out: MICs EC108
Procedure: (§1) Frozen bacterial strains were thawed and subcultured onto Mueller Hinton Broth (MHB) or other appropriate media (Streptococcus requires blood and Haemophilus requires hemin and NAD). Following incubation overnight, the strains were subcultured onto Mueller Hinton Agar and again incubated overnight. […] Isolated colonies were selected to prepare a starting inoculum equivalent to a 0.5 McFarland standard. The starting inoculum was diluted 1:125 using MHB for further use. Test compounds were prepared by dilution in sterile water to a final concentration of 5.128 mg/mL. Antibiotics (stored frozen, thawed and used within 3 hours of thawing) and compounds were further diluted to the desired working concentrations.
(§2) The assays were run as follows. Fifty μL of MHB was added to wells 2-12 of a 96-well plate. One hundred […] of appropriately diluted antibiotics was added to well 1. Fifty μL of antibiotics was removed from well 1 and added to well 2 and the contents of well 2 mixed by pipetting up and down five times. Fifty μL of the mixture in well 2 was removed and added to well 3 and mixed as above. Serial dilutions were continued in the same manner through well 12. Fifty μL was removed from well 12 so that all contained 50 μL. Fifty μL of the working inoculum was then added to all test wells. A growth control well was prepared by adding 50 μL of working inoculum and 50 μL of MHB to an empty well. The plates were then incubated at 37° C. overnight, removed from the incubator and each well was read on a plate reading mirror. The lowest concentration (MIC) of test compound that inhibited the growth of the bacteria was recorded.

[2] = tested on: A. baumanii ATCC 19606 (AB110); assay: Minimum inhibitory concentration assay, AB110; settings: Acinetobacter baumannii, ATCC19606; A. baumanii ATCC 19606, wt; read-out: MICs AB110
Procedure: as §1, §2

[3] = tested on: E. coli ATCC 25922 (EC107); assay: Minimum inhibitory concentration assay, EC107; settings: Escherichia coli, ATCC25922; E. coli ATCC 25922, wt; read-out: MICs EC107
Procedure: as §1, §2

[4] = tested on: S. aureus SA161 (tet resistant: tet(M) ribosomal protection); assay: Minimum inhibitory concentration assay, SA161; settings: Staphylococcus aureus, read-out: MICs SA161
Procedure: as §1, §2

[5] = tested on: E. coli EC155 (tet resistant: tetA efflux); assay: microbe, parasite or virus in culture; settings: Escherichia coli; E. coli tet resistant: tetA (efflux); read-out: MICs EC155
Procedure: as §1, §2

[6] = tested on: S. aureus SA158 (tet resistant: tetK efflux); assay: microbe, parasite or virus in culture; settings: Staphylococcus aureus, read-out: MICs SA158
Procedure: as §1, §2

[7] = tested on: K. pneumoniae KP153 (tet resistant: tetA efflux); assay: microbe, parasite or virus in culture; settings: Klebsiella pneumoniae, read-out: MICs KP153
Procedure: as §1, §2

[8] = tested on: E. faecalis ATCC 29212 (EF103); assay: Minimum inhibitory concentration assay, EF103; settings: Enterococcus faecalis, ATCC29212, read-out: MICs EF103
Procedure: as §1, §2

[9] = tested on: P. aeruginosa ATCC 27853 (PA111); assay: Minimum inhibitory concentration assay, PA111; settings: Pseudomonas aeruginosa, ATCC27853; P. aeruginosa ATCC 27853, wt; read-out: MICs PA111
Procedure: as §1, §2

[10] = tested on: E. faecalis EF159 (tet resistant: tetM); assay: Minimum inhibitory concentration assay, EF159; settings: Enterococcus faecalis, read-out: MICs EF159
Procedure: as §1, §2

[11] = tested on: S. pneumoniae ATCC 49619 (SP106); assay: Minimum inhibitory concentration assay, SP106; settings: Streptococcus pneumoniae, ATCC49619; S. pneumoniae ATCC 49619, wt; read-out: MICs SP106
Procedure: as §1, §2

[12] = tested on: S. aureus ATCC 13709 (SA100, MSSA, Smith strain); assay: Minimum inhibitory concentration assay, SA100; settings: Staphylococcus aureus; S. aureus ATCC 13709, MSSA Smith strain; read-out: MICs SA100
Procedure: as §1, §2

[13] = tested on: S. pneumoniae SP160 (tet resistant: tet M); assay: Minimum inhibitory concentration assay, SP160; settings: Streptococcus pneumoniae, read-out: MICs SP160
Procedure: as §1, §2

[14] = tested on: K. pneumoniae ATCC 13883 (KP109); assay: Minimum inhibitory concentration assay, KP109; settings: Klebsiella pneumoniae, ATCC13883; K. pneumoniae ATCC 13883, wt; read-out: MICs KP109
Procedure: as §1, §2

[15] = tested on: S. aureus ATCC 29213 (SA101, MSSA); assay: Minimum inhibitory concentration assay, SA101; settings: Staphylococcus aureus; S. aureus ATCC 29213, MSSA control; read-out: MICs SA101
Procedure: as §1, §2

| SMILES | MIC [1] [µg/mL] | MIC [2] [µg/mL] | MIC [3] [µg/mL] | MIC [4] [µg/mL] | MIC [5] [µg/mL] | MIC [6] [µg/mL] | MIC [7] [µg/mL] | MIC [8] [µg/mL] | MIC [9] [µg/mL] | MIC [10] [µg/mL] | MIC [11] [µg/mL] | MIC [12] [µg/mL] | MIC [13] [µg/mL] | MIC [14] [µg/mL] | MIC [15] [µg/mL] |
| --- | --- | --- | --- | --- | --- | --- | --- | --- | --- | --- | --- | --- | --- | --- | --- |
| CN(C)[C@@H]1C(O)=C(C(N)=O)C(=O)[C@@]2(O)C(O)=C3C(=O)c4c(O)c(NC(=O)CNCC(F)(F)F)cc(F)c4C[C@H]3C[C@@H]12 [Compound 22] | > 32 | 2 (≈ 3.41 µM) | 16 (≈ 27.3 µM) | 2 (≈ 3.41 µM) | > 32 | 4 (≈ 6.82 µM) | > 32 | 2 (≈ 3.41 µM) | > 32 | 4 (≈ 6.82 µM) | 0.5 (≈ 0.853 µM) | 1 (≈ 1.71 µM) | 1 (≈ 1.71 µM) | 32 (≈ 54.6 µM) | 1 (≈ 1.71 µM) |
| CN(C)CC(=O)Nc1cc(F)c2c(c1O)C(=O)C1=C(O)[C@]3(O)C(=O)C(C(N)=O)=C(O)[C@@H](N(C)C)[C@@H]3C[C@@H]1C2 [Compound 23] | 1 (≈ 1.88 µM) | 0.125 (≈ 0.235 µM) | 0.125 (≈ 0.235 µM) | 0.125 (≈ 0.235 µM) | 8 (≈ 15 µM) | 0.25 (≈ 0.469 µM) | 8 (≈ 15 µM) | ≤ 0.0156 | 8 (≈ 15 µM) | 0.0313 (≈ 0.0588 µM) | ≤ 0.0156 | 0.5 (≈ 0.939 µM) | ≤ 0.0156 | 0.5 (≈ 0.939 µM) | ≤ 0.0156 |
| CCN(C)CC(=O)Nc1cc(F)c2c(c1O)C(=O)C1=C(O)[C@]3(O)C(=O)C(C(N)=O)=C(O)[C@@H](N(C)C)[C@@H]3C[C@@H]1C2 [Compound 24] | 2 (≈ 3.66 µM) | 0.0313 (≈ 0.0573 µM) | 0.5 (≈ 0.915 µM) | 0.125 (≈ 0.229 µM) | 8 (≈ 14.6 µM) | 0.125 (≈ 0.229 µM) | 8 (≈ 14.6 µM) | ≤ 0.0156 | 16 (≈ 29.3 µM) | ≤ 0.0156 | ≤ 0.0156 | 0.25 (≈ 0.457 µM) | ≤ 0.0156 | 1 (≈ 1.83 µM) | 0.25 (≈ 0.457 µM) |
| CCN(CC)CC(=O)Nc1cc(F)c2c(c1O)C(=O)C1=C(O)[C@]3(O)C(=O)C(C(N)=O)=C(O)[C@@H](N(C)C)[C@@H]3C[C@@H]1C2 [Compound 25] | 2 (≈ 3.57 µM) | 0.125 (≈ 0.223 µM) | 0.5 (≈ 0.892 µM) | 0.125 (≈ 0.223 µM) | 8 (≈ 14.3 µM) | 0.0313 (≈ 0.0558 µM) | 8 (≈ 14.3 µM) | ≤ 0.0156 | 32 (≈ 57.1 µM) | 0.0625 (≈ 0.111 µM) | ≤ 0.0156 | 0.125 (≈ 0.223 µM) | ≤ 0.0156 | 2 (≈ 3.57 µM) | 0.125 (≈ 0.223 µM) |
| CCCCCNCC(=O)Nc1cc(F)c2c(c1O)C(=O)C1=C(O)[C@]3(O)C(=O)C(C(N)=O)=C(O)[C@@H](N(C)C)[C@@H]3C[C@@H]1C2 [Compound 26] | 2 (≈ 3.48 µM) | 0.25 (≈ 0.435 µM) | 0.5 (≈ 0.87 µM) | 1 (≈ 1.74 µM) | 4 (≈ 6.96 µM) | 1 (≈ 1.74 µM) | 4 (≈ 6.96 µM) | 0.25 (≈ 0.435 µM) | 16 (≈ 27.8 µM) | 0.5 (≈ 0.87 µM) | ≤ 0.0156 | 1 (≈ 1.74 µM) | ≤ 0.0156 | 2 (≈ 3.48 µM) | 1 (≈ 1.74 µM) |
| COCCCNCC(=O)Nc1cc(F)c2c(c1O)C(=O)C1=C(O)[C@]3(O)C(=O)C(C(N)=O)=C(O)[C@@H](N(C)C)[C@@H]3C[C@@H]1C2 [Compound 27] | 16 (≈ 27.7 µM) | 16 (≈ 27.7 µM) | 4 (≈ 6.94 µM) | 4 (≈ 6.94 µM) | 32 (≈ 55.5 µM) | 16 (≈ 27.7 µM) | 32 (≈ 55.5 µM) | 2 (≈ 3.47 µM) | > 32 | 4 (≈ 6.94 µM) | 0.125 (≈ 0.217 µM) | 2 (≈ 3.47 µM) | 0.5 (≈ 0.867 µM) | 8 (≈ 13.9 µM) | 2 (≈ 3.47 µM) |
